Results: patent US11072601B2, “μ-opioid receptor agonist and preparation method therefor and use thereof in field of medicine” (SHANGHAI SYNERGY PHARMACEUTICAL SCIENCES CO., LTD., priority 2017, dated 2021)

How the values were obtained:
[1] = system: SD rats; assay: Respiratory depression in rats, arterial blood gas PCO2; format: in vivo; conditions: for PCO2, 5 min before administration: arterial blood; for PCO2, 5 min after administration / PCO2, 30 min after administration / PCO2, 60 min after administration / PCO2, 120 min after administration: intravenous single dose 0.3 mg/kg (morphine 24 mg/kg)
From the text: (§1) 8-week-old male SD rats weighing 200 g-300 g were used as experimental animals to determine the effect of the compound of Example H05, the compound of Example H08, the compound of Example H10, the compound of Example H16, the compound of Example H17, the compound of Example H18, the compound of Example H21, and the compound of Example H24 on the partial pressure of blood in rats after intravenous administration. The effects of the compounds of the invention on respiratory depression were investigated.
After the rats were acclimatized to the experimental environment for 3 days, each animal was anesthetized with sodium pentobarbital (50-60 mg/kg, ip), and then the right common carotid artery was isolated and the unilateral carotid artery tube-bury surgery was performed (PE60, ID*OD*length as 0.76 mm*1.22 mm*20 cm, buried into the artery 1 cm deep, and the tube was filled with heparin sodium tube sealing solution).

[2] = biological target: T1, β-arrestin signaling pathway of MOR (Homo sapiens, UniProt P35372); assay: cell-based; conditions: PathHunter HEK293 cells, relative to endorphin MAX control
T1 construct: host or cells: HEK293 (PathHunter cell line)

[3] = biological target: T2, μ opioid receptor (MOR) (Homo sapiens, UniProt P35372); assay: cell-based; conditions: HEK293 stably expressing μ opioid receptor, FLIPR calcium
T2 construct: host or cells: HEK293
Protocol: The purpose of the experiment was to test the agonistic effects of the compounds of the present invention on μ opioid receptor (MOR), κ opioid receptor (KOR) and δ opioid receptor (DOR), and to evaluate in vitro activity of the compounds according to the half-maximal effect concentration (EC50).
This test was performed using HEK293 cell lines (the stably expressed cell lines were provided by WuXi AppTec) which stably expressed μ opioid receptor, δ opioid receptor or κ opioid receptor respectively. […] The cells were centrifuged at 1000 rpm for 5 minutes at room temperature to precipitate. The supernatant was sucked out, be careful not to suck out cells. The precipitate was flicked into the loose cells and resuspend in 45 ml DMEM medium. The Vi-CELL XR automatic cell viability detector (BECKMAN COULTER) was used to count the cells, and the cell concentration was adjusted to 10×10^5 cells/ml based on the counting results.
Preparation of probenecid mother solution: 1 ml of FLIPR test solution was added to 77 mg probenecid to prepare a 250 mM solution. The solution was freshly prepared just before use.
The solution was freshly prepared just before use.
The cell plate prepared above was removed from the incubator and 20 ul 2× Fluo-4 Direct™ buffer was added thereto. The final volume in the cell plate was […]. The plate was incubated at 37° C., under 5% CO2 for 50 minutes, and incubated at room temperature for 10 minutes, then was placed into the FLIPR instrument (MD), and the compound plate and pipette box was placed into. The protocol was run on the […] platform, 10 μl of positive drug or the test compound was transfered to the cell plate from the compound plate, and the fluorescent signal was read.
The signal value generated by each well was calculated, and the calculation formula was that: the activity %=(signal value of the test compound−signal value of the solvent)/(signal value of the positive drug−signal value of the solvent).

[4] = biological target: T3, cAMP pathway of MOR receptor (Homo sapiens, UniProt P35372); assay: cell-based; conditions: cAMP Hunter HEK293 cells, forskolin-induced cAMP; read-out: EC50 of cAMP levels affected by agonistic effect on MOR
T3 construct: host or cells: HEK293 (cAMP Hunter cell line)
From the text: The purpose of this experiment was to test the agonistic effect of the compounds of the invention on the cAMP pathway of MOR and to evaluate the in vitro activity of the compounds according to EC50.
In this experiment, HitHunter cAMP Assay EFC technology of DiscoverX was used to measure the cAMP level in cells and monitor the functional status of G-protein coupled receptors (GPCRs).
The amount of signal produced was directly proportional to the amount of cAMP in the cell.
The MOR receptor was bound to the inhibitory Gαi protein, so forskolin (for inducing cAMP signal) was used to induce cAMP expression in the experiment, and the inhibitory effect of the compounds on the above induction was measured.
The cAMP Hunter cell line (HEK293, DiscoverX) was removed from the freezer and expanded according to the Cell Standard Operating Procedure (SOP), 20 μL was collected and inoculated into a 384-well microplate and incubated at 37° C. overnight.
The HitHunter cAMP Assay test kit (DiscoverX, 90-0075sm) was used, the kit contained cAMP buffer, cAMP detection solution, and cAMP working solution A.
The formula was used to calculate the percentage of signal activity per well=100%×(1−(average RLU of the test samples−average RLU of the MAX controls)/(average RLU of the solvent controls−average RLU of the MAX controls)). wherein, the MAX control referred to the fluorescence signal value of the endorphin solution, and the solvent control referred to the fluorescence signal value of DMSO. The DiscoveRx CBIS data analysis workstation (ChemInnovation, CA) was used to perform statistical analysis of the percentage of signal activity and the concentration of the compounds by the agonist formula (comes with the software, universal) to calculate the EC50 value.

[5] = Pharmacokinetic test in rats, intravenous; format: in vivo; conditions: male, SD, rat, plasma, intravenous 1 mg/kg; for AUC: read-out: curve area (AUC); for half-life: read-out: half life (T½) (converted); for Cmax: read-out: plasma concentration (Cmax)
From the text: 8-week-old male SD rats weighing 200-300 g were used as experimental animals, and LC/MS/MS method was used to determine the drug concentration in plasma at different times after the administration of the compound of Example H01, the compound of Example H04, the compound of Example H05, the compound of Example H07, the compound of Example H16, the compound of Example H17, the compound of Example H18, the compound of Example H21, and the compound of Example H24. The pharmacokinetic behavior of the compounds of the present invention in rats was studied, and its pharmacokinetic characteristics were evaluated.
A certain amount of the compounds were weighed, and dissolved in ethanol/castor oil/water=10/10/80 to form a uniform solution.
The above compounds were administered intravenously to rats at a dose of 1 mg/kg, and 0.2 ml of blood was collected from the orbit at 0.083, 0.25, 0.5, 1.0, 2.0, 4.0, 6.0, 8.0, 12.0, 24.0 hours before and after administration, and placed in an anticoagulant tube, the plasma was separated by centrifugation at 6,000 rpm for 10 minutes at 4° C., and stored at −80° C.
50 μL of plasma was taken at different times, 150 μL of acetonitrile solution containing internal standard tolbutamide (200 ng/mL) was added, the system was mixed and shaked for 5 minutes, 12000 rpm, centrifuged for 5 minutes, 100 μL of supernatant was removed, and then mixed with 200 μL of water, then the sample was loaded for analysis. The internal standard tolbutamide solid (Aladdin, T129578) powder was dissolved in DMSO to prepare into a 1 mg/mL stock solution. The stock solution was diluted with 100% acetonitrile to obtain a solution of 200 ng/mL as a protein precipitator.
The liquid chromatography system was an LC-20AD UFLC high performance liquid chromatography system (Shimadzu, LC-20AD). The mass spectrometry system was an AB Sciex API4000 triple quadrupole mass spectrometer equipped with an electrospray ionization source (ESI) (Applied Biosystems, Canada). The software used to control the liquid-mass coanalyzer and quantitative analysis was Analyst 1.6 (Applied Biosystems, Canada), and the pharmacokinetic parameters were analyzed using WinNonlin (version 5.2, Pharsight, Mountain View, Calif.) non-compartment model.
Liquid chromatographic separation was performed using AQ-C18 column (50×2.1 mm, internal diameter of […]). The column temperature was maintained at room temperature.
The compound to be tested was dissolved in DMSO to prepare a stock solution with a concentration of 1 mg/mL, and diluted with 70% acetonitrile to obtain a series of standard working solutions with concentrations of 30, 10, 3, 1, 0.3, 0.1, 0.03, and 0.01. μg/mL, and a series of standard quality control solutions (24, 8 and 0.03 μg/mL). 5 μL of standard solution and 45 μL of blank plasma matrix were mixed uniformity to obtain standard solutions (3000, 1000, 300, 100, 30, 10, 3, and 1 ng/mL) and quality control standards (plasma samples: 2400, 800, 80, and 3 ng/mL) at each concentration point of the standard curve.

[6] = system: rat surgical incision injury model; assay: Rat surgical incision injury model, von Frey paw withdrawal threshold; format: in vivo, SD rats; conditions: rats, intravenous 0.3 mg/kg
From the text: as §1, with “H02,” for “H05,”, “H04,” for “H08,”, “H21” for “H21,”, “surgical pain” for “the partial pressure of blood”, “analgesic effect” for “effects”, “was discussed.” for “of the invention on respiratory depression were investigated.”
A certain amount of the compounds or TRV130 (MCE, 15150) was weighed, and dissolved in ethanol/castor oil/water=10/10/80 as a clear and transparent solution.
Three days after the rats were acclimatized to the experimental environment, the preoperative base value was determined, and followed by the surgical pain operation described below, about 24 hours after the surgery, the basic value was measured before administration on all animals, and mechanically hypersensitive animals (the paw withdrawal threshold (PWT) was less than 5 g) was randomly assigned to each administration group according to PWT. The pain threshold was determined 30 minutes and 60 minutes after intravenous administration of the positive drug TRV130 or each compound of the present invention (at a dose of 0.3 mg/kg).
The surgical procedure was performed aseptically, and the surgical instruments (scissors, tweezers, scalpels, surgical cotton and sutures) were sterilized before surgery. The animals were anesthetized with sodium pentobarbital (50 mg/kg, injected intraperitoneally), and the toes of the animals were squeezed to confirm that the animals were completely anesthetized before surgery. From the position of 0.5 cm away from the heel, an incision about 1 cm was made in the longitudinal direction of the toe. After cutting the skin, the musculus flexor digitorum brevis was raised and a blunt injury was caused longitudinally. After pressing to stop bleeding, the wound was sutured. When the animal was completely awake (free to move), the animal was put back into the cage (the reference of the construction of surgical pain model: Timothy J. Brennan, Erik P. Vandermeulen, G. F. Gebhart. Characterization of a rat model of incisional pain. Pain, 64(1996):493-501).
An up-down method was used for the determination of pain sensitivity. The mechanical pain results were expressed as animal paw withdrawal response threshold (PWT). The rat was placed separately in a plexiglass box with a mesh at the bottom of the box to ensure that the rat's feet could be tested. The rat was acclimatized for 15 minutes before the test, and after the acclimatization, the test fiber (von frey fiber, West coast) was used to test in the middle part of the hind foot of the rat. The test fibers included 8 test strengths: 3.61 (0.4 g), 3.84 (0.6 g), 4.08 (1 g), 4.31 (2 g), 4.56 (4 g), 4.74 (6 g), 4.93 (8 g), and 5.18 (15 g). During the test, the test fiber was pressed vertically against the skin and a force was applied to bend the fiber for 6-8 seconds, at an interval of 5 seconds between each test. During the test, the animal's rapid withdrawal was recorded as a pain response. When the test fiber left the animal's skin, the animal's withdrawal was also recorded as a pain response. Starting from 2 g, depending on whether the rats had any pain response, the test was changed into the next test intensity or the previous test intensity. A series of responses of the rats to different test intensities were recorded. […] Wherein, Xf was the logarithmic value of von Frey fiber used in the last test, and K value was the animal withdrawal reaction mode (recorded during the test), which was the value obtained after looking up the table according to the obtained sequence of “X” and “O”, δ=Mean of logarithmic difference between von Frey fibers used in the test.

T1 sequence (P35372 whole entry): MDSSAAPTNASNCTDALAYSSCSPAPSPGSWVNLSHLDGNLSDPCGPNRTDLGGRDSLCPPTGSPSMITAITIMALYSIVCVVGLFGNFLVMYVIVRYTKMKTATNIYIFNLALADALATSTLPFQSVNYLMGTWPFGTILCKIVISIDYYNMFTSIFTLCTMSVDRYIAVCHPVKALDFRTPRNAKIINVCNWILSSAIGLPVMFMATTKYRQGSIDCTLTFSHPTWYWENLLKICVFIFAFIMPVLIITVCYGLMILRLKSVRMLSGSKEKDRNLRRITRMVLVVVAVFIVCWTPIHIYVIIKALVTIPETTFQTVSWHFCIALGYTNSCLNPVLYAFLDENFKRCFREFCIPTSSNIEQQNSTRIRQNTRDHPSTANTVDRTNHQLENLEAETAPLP
T2 sequence (P35372 whole entry, species assumed): as the sequence (P35372 whole entry) above
T3 sequence (P35372 whole entry): as above

Row | Structure (SMILES) | PCO2, 5 min before administration [1] | PCO2, 5 min after administration [1] | PCO2, 30 min after administration [1] | PCO2, 60 min after administration [1] | PCO2, 120 min after administration [1] | Emax [2] | EC50 [3] | EC50 [4] | AUC [5] | half-life [5] | Cmax [5] | 50% PWT, 30 min after administration ([6]; 30 min) | 50% PWT, 60 min after administration ([6]; 60 min)
1 | Cc1ccc(CNCCC2(c3ccccn3)CCOC3(CCCC3)C2)c(C)c1 (stereo not drawn) [Example H08, (2,4-dimethylbenzyl)-[2-(9-(pyridin-2-yl)-6-oxaspiro[4.5]decan-9-yl)ethyl]amine] | 33.77 ± 0.88 mmHg | 35.48 ± 1.54 mmHg | 34.03 ± 0.69 mmHg | 34.27 ± 1.4 mmHg | 34.83 ± 1.15 mmHg | 3.8% | 3.42 nM | 4.77 nM |  |  |  |  | 
2 | Clc1ccsc1CNCCC1(c2ccccn2)CCOC2(CCCC2)C1 (stereo not drawn) [Example H05, ((3-chloro-thiophen-2-yl)methyl)-[2-(9-(pyridin-2-yl)-6-oxaspiro[4.5]decan-9-yl)ethyl]amine] | 35.65 ± 0.44 mmHg | 36.15 ± 1.93 mmHg | 33.65 ± 0.49 mmHg | 34.85 ± 0.43 mmHg | 35.7 ± 0.95 mmHg | 0% | 7.05 nM | 10.2 nM | 336 ± 14.1 ng·h/mL | 3.93 ± 0.13 h | 261 ± 21 ng/mL |  | 
3 | FC(F)(F)Oc1cccc(CNCCC2(c3ccccn3)CCOC3(CCCC3)C2)c1 (stereo not drawn) [Example H01, (3-trifluoromethoxybenzyl)-[2-(9-(pyridin-2-yl)-6-oxaspiro[4.5]decan-9-yl)ethyl]amine] |  |  |  |  |  | 6.26% | 6.71 nM | 4.93 nM | 295 ± 1 ng·h/mL | 1.11 ± 0.24 h | 202 ± 33.5 ng/mL |  | 
4 | Cc1ccc(CNCCC2(c3ccccn3)CCOC3(CCCC3)C2)cc1C (stereo not drawn) [Example H07, (3,4-dimethylbenzyl)-[2-(9-(pyridin-2-yl)-6-oxaspiro[4.5]decan-9-yl)ethyl]amine] |  |  |  |  |  | 1.55% | 3.15 nM | 3.08 nM | 583 ± 31.8 ng·h/mL | 1.25 ± 0.05 h | 483 ± 33.3 ng/mL |  | 
5 | COc1ccsc1CNCC[C@@]1(c2ccccn2)CCOC2(CCCC2)C1 [TRV130, reference compound] |  |  |  |  |  |  |  |  |  |  |  | 6.05 ± 0.44 g | 5.71 ± 0.33 g
